Laboratory results reported in patent publication US9910034B2, “Methods and compositions for phototransfer” (AmberGen, Inc., priority 2007, dated 2018).

Target: T1, protein kinase Cα (PKCα) (Homo sapiens, UniProt P17252)
T1 construct: isolate and photo-release endogenous PKCα from the undiluted detergent fractionated HeLa cell extracts; endogenous in cells; host or cells: HeLa cells (ATCC)
Test: PMA mediated PKCα sub-cellular translocation measured by kinase activity after isolation with photocleavable antibodies
Type: cell-based
Conditions: cultured HeLa cells stimulated with 200 nM PMA for 5 min; detergent fractionated; based on kinase activity of photocleavable antibody isolated protein; n=4
Procedure: FIG. 20. Phorbol ester (PMA) mediated protein kinase Cα (PKCα) sub-cellular translocation as measured by functional activity following isolation with photocleavable antibodies. Cultured HeLa cells were stimulated with 200 nM PMA for 5 min and detergent fractionated into the cytosol and membrane compartments prior to isolation and purification with the photocleavable antibodies.
Cultured HeLa cells (ATCC; Manassas, Va.) were stimulated for 5 min with 200 nM Phorbol-12-Myristate-13-Acetate (PMA; EMD Biosciences, Inc., San Diego, Calif.) and subsequently detergent fractionated into sub-cellular compartments according to reported procedures [Ramsby et al. (1994) Electrophoresis 15, 265-277; Ramsby & Makowski. (1999) Methods Mol Biol 112, 53-66; Chiang et al. (2000) J Biochem Biophys Methods 46, 53-68]. PMA is a potent activator of PKCα and is well known to cause translocation of the kinase from the cytosolic to the membrane sub-cellular compartments [Ross & Joyner. (1997) Endothelium 5, 321-332; Bazan & Rapoport. (1996) J Pharmacol Toxicol Methods 36, 87-95; Yazlovitskaya Melnykovych. (1995) Cancer Lett 88, 179-183]. […]

Compound: CCCCCCCCCCCCCC(=O)O[C@@H]1[C@@H](C)[C@@]2(O)[C@@H](C=C(CO)C[C@]3(O)C(=O)C(C)=C[C@@H]23)[C@@H]2C(C)(C)[C@]12OC(C)=O [PMA, Phorbol-12-Myristate-13-Acetate]
- relative sub-cellular distribution of PKCα, cytosol: 16±4%
- relative sub-cellular distribution of PKCα, membrane: 84±3%
